The text below walks through data of patent US10669238B2, “Irreversible bruton's tyrosine kinase inhibitor” (HEFEI INSTITUTES OF PHYSICAL SCIENCE, CHINESE ACADEMY OF …, priority 2016, dated 2020).

A value given as a limit tells only on which side of the number the result lay.

BTK protein kinase, sequence (Q06187 whole entry): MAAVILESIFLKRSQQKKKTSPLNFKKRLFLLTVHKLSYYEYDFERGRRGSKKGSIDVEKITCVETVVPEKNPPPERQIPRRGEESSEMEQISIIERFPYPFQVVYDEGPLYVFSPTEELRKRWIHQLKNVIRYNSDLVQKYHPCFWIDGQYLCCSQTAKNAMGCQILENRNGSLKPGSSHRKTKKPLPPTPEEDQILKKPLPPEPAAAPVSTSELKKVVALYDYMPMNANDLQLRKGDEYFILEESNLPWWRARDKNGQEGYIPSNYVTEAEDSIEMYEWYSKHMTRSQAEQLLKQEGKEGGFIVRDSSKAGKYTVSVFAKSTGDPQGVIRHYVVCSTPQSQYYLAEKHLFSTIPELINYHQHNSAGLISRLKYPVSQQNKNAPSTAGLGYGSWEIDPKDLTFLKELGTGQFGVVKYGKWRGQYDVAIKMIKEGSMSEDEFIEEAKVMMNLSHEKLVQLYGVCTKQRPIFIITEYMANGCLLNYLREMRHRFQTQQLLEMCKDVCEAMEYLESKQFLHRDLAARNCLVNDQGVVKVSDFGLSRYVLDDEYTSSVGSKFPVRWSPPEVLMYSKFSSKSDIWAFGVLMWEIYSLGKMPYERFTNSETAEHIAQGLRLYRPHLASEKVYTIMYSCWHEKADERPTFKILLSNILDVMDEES

The first experiment concerns the target BTK protein kinase (Homo sapiens, UniProt Q06187). The experiment in a line: In vitro enzymatic activity against BTK (ADP-Glo). Particulars: compound with BTK 4 hours at room temperature; ATP 10 μM, 37° C. 1 hour; value printed in nm. It is filed as biochemical. The protocol:
In vitro enzymatic activity of the compounds against BTK was determined in a experimental assay of in vitro enzymatic activity using […] kit (purchased from Progema, USA).
9 μL of BTK protein kinase (at a concentration of 1.5 ng/μL) was used to react with compounds (1 μL) shown in the following table that were diluted three times in gradient at room temperature for 4 hours (the final concentration of the compound being 10 μM, 3 μM, 1 μM, 0.3 μM, 0.1 μM, 0.03 μM, 0.01 μM, 0.003 μM);
2 μL of ATP and 3 μL of the substrate Poly(4:1 Glu, Tyr)Peptide (Promega, USA) (the final concentrations being 10 μM and 0.2 μg/μL, respectively) were added to allow reaction at 37° C. for 1 hour;
5 μL of BTK kinase solution after reaction was taken and added into 5 μL of ADP-Glo™ (Promega, USA) reagent to allow reaction at room temperature for 40 mins so as to terminate the kinase reaction and exhaust the remaining ATP;
10 μL kinase detecting reagent was added to convert ADP to ATP, and newly synthesized ATP was detected using coupled luciferase/[…] reaction, then the IC50 values were calculated by using a plotting method based on the Envision reading.
Background: ADP-Glo first removes unused ATP, then detects ADP through luciferase.
The compound `C=CC(=O)Nc1cc(Nc2cc(-c3cccc(NC(=O)c4cc5ccccc5s4)c3C)cn(C)c2=O)ccc1N1CCC(OC)CC1` [Compound 87, N-(3-(5-((3-acrylamide-4-(4-methoxypiperidin-1-yl)phenyl)amino)-1-methyl-6-oxo-1,6-dihydropyridin-3-yl)-2-methylphenyl)benzo[b]thiophene-2-carboxamide] came in with an IC50 of 0.126 µM.

The experiment is the same for the next values; noted with them: compound with BTK 4 hours at room temperature; ATP 10 μM, 37° C. 1 hour; values given in μM.
For `C=CC(=O)Nc1ccc(NC(=O)c2ccc(C(C)(C)C)cc2)c(C)c1-c1cc(Nc2ccc(C(=O)N3CCOCC3)cc2)c(=O)n(C)c1` [Compound 24], half-maximal inhibition (IC50) was put at 1.77 µM.
`Cc1c(NC(=O)c2ccc(C(C)(C)C)cc2)cccc1-c1cc(Nc2cccc(NC(=O)CCl)c2)c(=O)n(C)c1` [Compound 22, N-(3-(5-((3-chloroacetamidephenyl)amino)-1-methyl-6-oxo-1,6-dihydropyridin-3-yl)-2-methylphenyl)-4-(tert-butyl)benzamide] had an IC50 of 5.53 µM.

Still in this experiment, the particulars now being: compound with BTK 4 hours at room temperature; ATP 10 μM, 37° C. 1 hour; values in nM.
In the case of `C=CC(=O)Nc1cc(Nc2cc(-c3cccc(NC(=O)c4ccc(C(C)(C)C)cc4)c3C)cn(C)c2=O)ccc1C(=O)N1CCCC(O)C1` (centres unmarked) [Compound 47, N-(3-(5-((3-acrylamide-4-(3-hydroxypiperidin-1-carbonyl)phenyl)amino)-1-methyl-6-oxo-1,6-dihydropyridin-3-yl)-2-methylphenyl)-4-(tert-butyl)benzamide], it took 0.024 µM to reach half-maximal inhibition (IC50).
Turning to `C=CC(=O)Nc1cc(Nc2cc(-c3cccc(NC(=O)c4cc5ccccc5s4)c3C)cn(C)c2=O)ccc1N1CCN(C(C)C)CC1` [Compound 90, N-(3-(5-((3-acrylamide-4-(4-isopropylpiperazin-1-yl)phenyl)amino)-1-methyl-6-oxo-1,6-dihydropyridin-3-yl)-2-methylphenyl)benzo[b]thiophene-2-carboxamide], half-maximal inhibition (IC50) was put at 0.0065 µM.
The compound `C=CC(=O)Nc1cc(Nc2cc(-c3cccc(NC(=O)c4cc5ccccc5s4)c3C)cn(C)c2=O)ccc1N1CCC(N(C)C)CC1` [Compound 84, N-(3-(5-((3-acrylamide-4-(4-(dimethylamino)piperidin-1-yl)phenyl)amino)-1-methyl-6-oxo-1,6-dihydropyridin-3-yl)-2-methylphenyl)benzo[b]thiophene-2-carboxamide] showed an IC50 of 0.0078 µM.
For the compound `C=CC(=O)Nc1cc(Nc2cc(-c3cccc(NC(=O)c4ccc(N(C)C)cc4)c3C)cn(C)c2=O)ccc1C(=O)NC1CCOCC1` [Compound 51, 2-acrylamide-4-((5-(3-(4-(dimethylamino)benzoylamide)-2-methylphenyl)-1-methyl-2-oxo-1,2-dihydropyridin-3-yl)amino)-N-(tetrahydro-2H-pyran-4-yl)benzoylamide], half-maximal inhibition (IC50) required 0.089 µM.
`C=CC(=O)Nc1cc(Nc2cc(-c3cccc(NC(=O)c4cc5ccccc5s4)c3C)cn(C)c2=O)ccc1N(C)C` [Compound 93, N-(3-(5-((3-acrylamide-4-(dimethylamino)phenyl)amino)-1-methyl-6-oxo-1,6-dihydropyridin-3-yl)-2-methylphenyl)benzo[b]thiophene-2-carboxamide]: the midpoint of inhibition, the IC50, lay at 0.0154 µM.
The same measure, in the same setting: for `C=CC(=O)Nc1cc(Nc2cc(-c3cccc(NC(=O)c4ccc(N(C)C)cc4)c3C)cn(C)c2=O)ccc1C(=O)N1CCCCC1` [Compound 50, N-(3-(5-((3-acrylamide-4-(piperidin-1-carbonyl)phenyl)amino)-1-methyl-6-oxo-1,6-dihydropyridin-3-yl)-2-methylphenyl)-4-(dimethylamino)benzoylamide] the value was 0.091 µM.
In turn, `Cc1c(NC(=O)c2ccc(C(C)(C)C)cc2)cccc1-c1cc(Nc2ccc(C(=O)N3CCCC3)c(NC(=O)CCl)c2)c(=O)n(C)c1` [Compound 32, N-(3-(5-((3-chloroacetamide-4-(pyrrolidin-1-carbonyl)phenyl)amino)-1-methyl-6-oxo-1,6-dihydropyridin-3-yl)-2-methylphenyl)-4-(tert-butyl)benzamide] came in with an IC50 of 0.029 µM.
On to `Cc1c(NC(=O)c2ccc(N(C)C)cc2)cccc1-c1cc(Nc2ccc(C(=O)N3CCOCC3)c(NC(=O)CCl)c2)c(=O)n(C)c1` [Compound 36, N-(3-(5-((3-chloroacetamide-4-(morpholin-4-carbonyl)phenyl)amino)-1-methyl-6-oxo-1,6-dihydropyridin-3-yl)-2-methylphenyl)-4-(dimethylamino)benzoylamide], for which it took 0.024 µM to reach half-maximal inhibition (IC50).
Same read-out and setting: for `C=CC(=O)Nc1cc(Nc2cc(-c3cccc(NC(=O)c4cc5ccccc5s4)c3C)cn(C)c2=O)ccc1N1CCN(C)CC1` [Compound 81, N-(3-(5-((3-acrylamide-4-(4-methylpiperazin-1-yl)phenyl)amino)-1-methyl-6-oxo-1,6-dihydropyridin-3-yl)-2-methylphenyl)-benzo[b]thiophene-2-carboxamide] the value was 0.0289 µM; for `C=CC(=O)Nc1cc(Nc2cc(-c3cccc(NC(=O)c4cc(C)cs4)c3C)cn(C)c2=O)ccc1C(=O)N1CCOCC1` [Compound 70, N-(3-(5-((3-acrylamide-4-(morpholin-4-carbonyl)phenyl)amino)-1-methyl-6-oxo-1,6-dihydropyridin-3-yl)-2-methylphenyl)-4-methylthiophene-2-carboxamide], 0.114 µM.
With `C=CC(=O)Nc1cc(Nc2cc(-c3cccc(NC(=O)c4ccc(C)c(C(F)(F)F)c4)c3C)cn(C)c2=O)ccc1C(=O)N1CCOCC1` [Compound 63, N-(3-(5-((3-acrylamide-4-(morpholin-4-carbonyl)phenyl)amino)-1-methyl-6-oxo-1,6-dihydropyridin-3-yl)-2-methylphenyl)-4-methyl-3-(trifluoromethyl)benzoylamide], the IC50 is 0.8 µM.
For the compound `CCC(=O)Nc1cc(Nc2cc(-c3cccc(NC(=O)c4ccc(C(C)(C)C)cc4)c3C)cn(C)c2=O)ccc1C(=O)N(C)C` [Compound 30, 2-propanamide-4-((5-(3-(4-(tert-butyl)benzamide)-2-methylphenyl)-1-methyl-2-oxo-1,2-dihydropyridin-3-yl)amino)-N,N-dimethylbenzoylamide], the IC50 stood at 0.339 µM.
On the same count and under the same terms, for `C=CC(=O)Nc1cc(Nc2cc(-c3cccc(NC(=O)c4ccc(C(C)(C)C)cc4)c3C)cn(C)c2=O)ccc1C` [Compound 25, N-(3-(5-((3-acrylamide-4-methylphenyl)amino)-1-methyl-6-oxo-1,6-dihydropyridin-3-yl)-2-methylphenyl)-4-(tert-butyl)benzamide] the value was 0.212 µM.
`C=CC(=O)Nc1cc(Nc2cc(-c3cccc(NC(=O)c4cc5ccccc5s4)c3C)cn(C)c2=O)ccc1C(=O)N1CCOCC1` [Compound 68, N-(3-(5-((3-acrylamide-4-(morpholin-4-carbonyl)phenyl)amino)-1-methyl-6-oxo-1,6-dihydropyridin-3-yl)-2-methylphenyl)benzo[b]thiophene-2-carboxamide] returned an IC50 of 0.022 µM.
On the same count and under the same terms, the same measure for `C=CC(=O)Nc1cc(Nc2cc(-c3cccc(NC(=O)c4ccc(C)cc4)c3C)cn(C)c2=O)ccc1C(=O)N1CCOCC1` [Compound 9, N-(3-(5-((3-acrylamide-4-(morpholin-4-carbonyl)phenyl)amino)-1-methyl-6-oxo-1,6-dihydropyridin-3-)-2-methylphenyl)-4-(methyl)benzoylamide]: 0.0889 µM; for `C=CC(=O)Nc1cc(Nc2cc(-c3cccc(NC(=O)c4cccc(C(F)(F)F)c4)c3C)cn(C)c2=O)ccc1C(=O)N1CCOCC1` [Compound 57, N-(3-(5-((3-acrylamide-4-(morpholin-4-carbonyl)phenyl)amino)-1-methyl-6-oxo-1,6-dihydropyridin-3-yl)-2-methylphenyl)-3-(trifluoromethyl)benzoylamide]: > 10 µM; for `C=CC(=O)Nc1cc(Nc2cc(-c3cccc(NC(=O)c4ccc(C(C)(C)C)cc4)c3C)cn(C)c2=O)ccc1C(=O)OC` [Compound 49, 2-acrylamide-4-((5-(3-(4-(tert-butyl)benzamide)-2-methylphenyl)-1-methyl-2-oxo-1,2-dihydropyridin-3-yl)amino)methyl benzoate]: 0.162 µM.
The same measure, in the same setting: the same measure for `CCC(=O)Nc1cc(Nc2cc(-c3cccc(NC(=O)c4ccc(N(C)C)cc4)c3C)cn(C)c2=O)ccc1C(=O)N1CCOCC1` [Compound 37, N-(3-(5-((3-propanamide-4-(morpholin-4-carbonyl)phenyl)amino)-1-methyl-6-oxo-1,6-dihydropyridin-3-yl)-2-methylphenyl)-4-(dimethylamino)benzo]: 0.646 µM; for `C=CC(=O)Nc1cc(Nc2cc(-c3cccc(NC(=O)c4cc5ccccc5s4)c3C)cn(C)c2=O)ccc1N1CCN(C(C)=O)CC1` [Compound 92, N-(3-(5-((4-(4-acetylpiperazin-1-yl)-3-acrylamidephenyl)amino)-1-methyl-6-oxo-1,6-dihydropyridin-3-yl)-2-methylphenyl)benzo[b]thiophene-2-carboxamide]: 0.0717 µM; for `C=CC(=O)Nc1cc(Nc2cc(-c3cccc(NC(=O)c4cc5ccccc5s4)c3C)cn(C)c2=O)ccc1N1CCOCC1` [Compound 82, N-(3-(5-((3-acrylamide-4-morpholinophenyl)amino)-1-methyl-6-oxo-1,6-dihydropyridin-3-yl)-2-methylphenyl)benzo[b]thiophene-2-carboxamide]: 0.0988 µM.

By IC50 is commonly meant the point on the concentration scale where inhibition reaches its midpoint.
